The results in this text go back to patent US20230041738A1, “1H-PYRAZOLO[4,3-d]PYRIMIDINE COMPOUNDS AS TOLL-LIKE RECEPTOR 7 (TLR7) AGONISTS” (BRISTOL-MYERS SQUIBB COMPANY, priority 2020, published 2023).

For assay [1], the target named is T1, human TLR7 (Homo sapiens, UniProt Q9NYK1).
T1 construct: host or cells: HEK-Blue TLR7 cells (engineered human embryonic kidney cells)
T1 sequence (Q9NYK1 27-1049): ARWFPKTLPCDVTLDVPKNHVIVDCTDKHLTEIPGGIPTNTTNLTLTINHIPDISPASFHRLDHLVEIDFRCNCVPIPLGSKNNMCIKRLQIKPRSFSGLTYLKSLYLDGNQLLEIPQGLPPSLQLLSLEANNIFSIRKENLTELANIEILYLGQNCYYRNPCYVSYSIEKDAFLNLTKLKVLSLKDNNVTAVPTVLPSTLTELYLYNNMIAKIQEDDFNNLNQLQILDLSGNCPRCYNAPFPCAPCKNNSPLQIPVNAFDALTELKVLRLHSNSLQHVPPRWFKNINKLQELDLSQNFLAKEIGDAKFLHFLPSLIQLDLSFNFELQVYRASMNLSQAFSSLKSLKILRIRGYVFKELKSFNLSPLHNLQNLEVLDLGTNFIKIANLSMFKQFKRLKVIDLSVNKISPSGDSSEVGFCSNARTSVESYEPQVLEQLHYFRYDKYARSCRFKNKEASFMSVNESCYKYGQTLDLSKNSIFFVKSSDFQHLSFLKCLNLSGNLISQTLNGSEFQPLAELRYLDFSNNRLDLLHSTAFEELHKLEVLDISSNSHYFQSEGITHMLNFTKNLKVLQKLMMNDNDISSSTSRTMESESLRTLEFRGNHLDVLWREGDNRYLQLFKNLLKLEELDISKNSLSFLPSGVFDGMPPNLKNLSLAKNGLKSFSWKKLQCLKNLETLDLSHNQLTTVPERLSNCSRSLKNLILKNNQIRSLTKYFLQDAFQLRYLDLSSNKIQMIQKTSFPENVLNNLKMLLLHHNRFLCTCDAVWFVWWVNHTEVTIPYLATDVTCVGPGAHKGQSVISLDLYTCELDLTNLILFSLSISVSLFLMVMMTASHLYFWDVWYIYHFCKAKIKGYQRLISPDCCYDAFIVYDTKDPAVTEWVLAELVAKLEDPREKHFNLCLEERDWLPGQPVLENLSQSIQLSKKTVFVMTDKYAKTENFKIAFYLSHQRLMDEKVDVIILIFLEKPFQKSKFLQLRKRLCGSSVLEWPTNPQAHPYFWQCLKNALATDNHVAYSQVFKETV
In words: Human TLR7 agonist activity assay (hTLR7 reporter, HEK-Blue TLR7 cells, SEAP). The assay is classed as cell-based. The note with it: HEK-Blue TLR7 cells with SEAP reporter, 18 h treatment; average where assay performed multiple times. As for the experimental part:
This procedure describes a method for assaying human TLR7 (hTLR7) agonist activity of the compounds disclosed in this specification.
HEK-Blue™ TLR7 cells were added to each well of a 384-well tissue-culture plate (15,000 cells per well) and incubated 16-18 h at 37° C., 5% CO2. Compounds (100 nl) were dispensed into wells containing the HEK-Blue™ TLR cells and the treated cells were incubated at 37° C., 5% CO2. After 18 h treatment ten microliters of freshly-prepared Quanti-Blue™ reagent (Invivogen) was added to each well, incubated for 30 min (37° C., 5% CO2) and SEAP levels measured using an Envision plate reader (OD=620 nm). The half maximal effective concentration values (EC50; compound concentration which induced a response halfway between the assay baseline and maximum) were calculated.

The test system of assay [2] is CD69. Kind of assay: Induction of CD69 in human whole blood (hWB). The assay is classed as cell-based. Conditions: 17 hrs at 37 C, CD69 surface staining, 100% set to 1 uM resiquimod, average where performed multiple times. The protocol:
The induction of Type I interferon (IFN) MX-1 genes and the B-cell activation marker CD69 are downstream events that occur upon activation of the TLR7 pathway. The following is a human whole blood assay that measures their induction in response to a TLR7 agonist.
Heparinized human whole blood was harvested from human subjects and treated with test TLR7 agonist compounds at 1 mM. The blood was diluted with RPMI 1640 media and Echo was used to predot 10 nL per well giving a final concentration of 1 uM (10 nL in 10 uL of blood). After mixing on a shaker for 30 sec, the plates were covered and placed in a 37° C. chamber for o/n=17 hrs. Fixing/lysis buffer was prepared (5×→1× in H2O, warm at 37° C.; Cat #BD 558049) and kept the perm buffer (on ice) for later use.
For surface markers staining (CD69): prepared surface Abs: 0.045 ul hCD14-FITC (ThermoFisher Cat #MHCD1401)+0.6 ul hCD19-ef450 (ThermoFisher Cat #48-0198-42)+1.5 ul hCD69-PE (cat #BD555531)+0.855 ul FACS buffer. Added 3 ul/well, spin1000 rpm for 1 min and mixed on shaker for 30 sec, put on ice for 30 mins. Stop stimulation after 30 min with 70 uL of prewarmed 1× fix/lysis buffer and use Feliex mate to resuspend (15 times, change tips for each plate) and incubate at 37C for 10 min.
Centrifuge at 2000 rpm for 5 min aspirate with HCS plate washer, mix on shaker for 30 sec and then wash with 70 uL in dPBS and pelleted 2× s (2000 rpm for 5 min) and 50 ul wash in FACS buffer pelleted 1×s(2000 rpm for 5 min). Mix on shaker for 30 sec. For Intracellular markers staining (MX-1): Add 50 ul of BD Perm buffer III and mix on shaker for 30 sec. Incubate on ice for 30 min (in the dark). Wash with 50 uL of FACS buffer 2× (spin @2300 rpm×5 min after perm) followed by mixing on shaker for 30 sec. Resuspended in 20 ul of FACS buffer containing MX1 antibody ( )(4812)-Alexa 647: Novus Biologicals #NBP2-43704AF647) 20 ul FACS bf+0.8 ul hlgG+0.04 ul MX-1. Spin 1000 rpm for 1 min, mix on shaker for 30se and the samples were incubated at RT in the dark for 45 min followed by washing 2× FACS buffer (spin @2300 rpm×5 min after perm). Resuspend 20 ul (35 uL total per well) of FACS buffer and cover with foil and place in 4° C. to read the following day. Plates were read on iQuePlus. The results were loaded into toolset and IC50 curves are generated in curve master. The y-axis 100% is set to 1 uM of resiquimod.

The EC50 is the concentration giving half of the maximal effect. Read a low EC50 as an effect from little substance.

Structures are written as SMILES.

Take `COc1cc(CN2C[C@H]3C[C@@H]2CN3C)ccc1Cn1ncc2nc(N)nc(N[C@H](CO)CC3CC3)c21` [Compound 137, (2S)-2-({5-amino-1-[(2-methoxy-4-{[(1R,4R)-5-methyl-2,5-diaza-bicyclo[2.2.1]heptan-2-yl]methyl}-phenyl]methyl]-1H-pyrazolo[4,3-d]pyrimidin-7-yl}amino)-3-cyclopropylpropan-1-ol]: the figures for the EC50 in assay [1] and in assay [2] were 576 nM and 13.2 nM, respectively.

In the case of `CCC[C@@H](CCO)Nc1nc(N)nc2cnn(Cc3ccc(CN4C[C@H]5C[C@@H]4CN5C)cc3OC)c12` [Compound 121, (3S)-3-({5-amino-1-[(2-methoxy-4-{[(1R,4R)-5-methyl-2,5-diaza-bicyclo[2.2.1]heptan-2-yl]methyl}-phenyl)methyl]-1H-pyrazolo[4,3-d]pyrimidin-7-yl}amino)hexan-1-ol], the EC50 was 22.1 nM in assay [1] and 1.3 nM in assay [2].

As to `CCC[C@@H](CCO)Nc1nc(N)nc2cnn(Cc3ncc(CN4C[C@@H]5C[C@H]4CN5CCO)cc3OC)c12` [Compound 135, (3S)-3-({5-amino-1-[(5-{[(1S,4S)-5-(2-hydroxyethyl)-2,5-diaza-bicyclo[2.2.1]heptan-2-yl]methyl}-3-methoxypyridin-2-yl)methyl]-1H-pyrazolo[4,3-d]pyrimidin-7-yl}amino)hexan-1-ol], the EC50 was 297 nM in assay [1] and 12.2 nM in assay [2].

As to `CCC[C@@H](CCO)Nc1nc(N)nc2cnn(Cc3ncc(CN4C[C@H]5C[C@@H]4CN5CCO)cc3OC)c12` [Compound 138, (3S)-3-({5-amino-1-[(5-{[(1R,4R)-5-(2-hydroxyethyl)-2,5-diaza-bicyclo[2.2.1]heptan-2-yl]methyl}-3-methoxypyridin-2-yl)methyl]-1H-pyrazolo[4,3-d]pyrimidin-7-yl}amino)hexan-1-ol], the concentration for a half-maximal effect (EC50) in assay [1] amounted to 278 nM; in assay [2], 3 nM.

Consider `CCCCNc1nc(N)nc2cnn(Cc3ccc(CN4C[C@H]5CNC[C@H]5C4)cc3OC)c12` [Compound 136, 1-[(4-{[(3aR,6aS)-octahydro-pyrrolo[3,4-c]pyrrol-2-yl]methyl}-2-methoxyphenyl)methyl]-N7-butyl-1H-pyrazolo[4,3-d]pyrimidine-5,7-diamine], for which the EC50 in assay [1] was determined as 62.2 nM; in assay [2], 1.3 nM.

On to `CCC[C@@H](CCO)Nc1nc(N)nc2cnn(Cc3cnc(CN4C[C@H]5CN(C)C[C@H]5C4)cc3OC)c12` [Compound 132, (3S)-3-({1-[(6-{[(3aR,6aS)-5-methyl-octahydropyrrolo[3,4-c]pyrrol-2-yl]methyl}-4-methoxypyridin-3-yl)methyl]-5-amino-1H-pyrazolo [4,3-d]pyrimidin-7-yl}amino)hexan-1-ol], for which the values for the EC50 in assay [1] and in assay [2] were 65.9 nM and 2.2 nM, respectively.

`CCCCNc1nc(N)nc2cnn(Cc3ccc(C(=O)N4C[C@H]5CN(C)C[C@H]5C4)cc3OC3CC3)c12` [Compound 118, 1-({4-[(3aR,6aS)-5-methyl-octa-hydropyrrolo[3,4-c]pyrrole-2-carbonyl]-2-cyclopropoxyphenyl}-methyl)-N7-butyl-1H-pyrazolo[4,3-d]pyrimidine-5,7-diamine]: the EC50 in assay [1] was 339 nM; in assay [2], 51.8 nM.

In the case of `CCCCNc1nc(N)nc2c(C)nn(Cc3ccc(C(=O)N4C[C@H]5CN(C)C[C@H]5C4)cc3OC)c12` [Compound 115, 1-({4-[(3aR,6aS)-5-methyl-octahydropyrrolo[3,4-c]pyrrole-2-carbonyl]-2-methoxyphenyl}methyl)-N7-butyl-3-methyl-1H-pyrazolo[4,3-d]pyrimidine-5,7-diamine], the EC50 came to 79.8 nM in assay [1] and 10.9 nM in assay [2].

For `COc1cc(CN2C[C@H]3CNC[C@H]3C2)ccc1Cn1ncc2nc(N)nc(NCC3CC(C4CC4)C3)c21` (stereo partly drawn) [Compound 113, 1-[(4-{[(3aR,6aS)-octahydro-pyrrolo[3,4-c]pyrrol-2-yl]methyl}-2-methoxyphenyl)methyl]-N7-[(3-cyclopropylcyclobutyl)methyl]-1H-pyrazolo[4,3-d]pyrimidine-5,7-diamine], the EC50 in assay [1] came to 22.2 nM; in assay [2], 43.2 nM.

Consider `COc1cc(CN2C[C@@H]3C[C@H]2CN3)ccc1Cn1ncc2nc(N)nc(NCC3CC(C4CC4)C3)c21` (stereo partly drawn) [Compound 112, N7-[(3-cyclopropylcyclobutyl)-methyl]-1-[(4-{[(1S,4S)-2,5-diazabicyclo[2.2.1]heptan-2-yl]methyl}-2-methoxy-phenyl)methyl]-1H-pyrazolo[4,3-d]pyrimidine-5,7-diamine], for which the EC50 in assay [1] is 30.5 nM; in assay [2] it was 151 nM.

Turning to `CCC[C@@H](CCO)Nc1nc(N)nc2cnn(Cc3cnc(CN4C[C@@H]5C[C@H]4CN5C)cc3OC)c12` [Compound 131, (3S)-3-({5-amino-1-[(4-methoxy-6-{[(1S,4S)-5-methyl-2,5-diaza-bicyclo[2.2.1]heptan-2-yl]methyl}pyridin-3-yl)methyl]-1H-pyrazolo[4,3-d]pyrimidin-7-yl}amino)hexan-1-ol], the EC50 worked out at 333 nM in assay [1] and 11.7 nM in assay [2].

On to `COc1cc(CN2C[C@@H]3C[C@H]2CN3)ccc1Cn1ncc2nc(N)nc(NCc3cc(C)on3)c21` [Compound 106, 1-[(4-{[(1S,4S)-2,5-diazabicyclo-[2.2.1]heptan-2-yl]methyl}-2-methoxyphenyl)methyl]-N7-[(5-methyl-1,2-oxazol-3-yl)methyl]-1H-pyrazolo[4,3-d]pyrimidine-5,7-diamine], for which the EC50 amounted to 234 nM in assay [1] and 73.6 nM in assay [2].

On to `COc1cc(CN2C[C@@H]3C[C@H]2CO3)ccc1Cn1ncc2nc(N)nc(NCc3cc(C)on3)c21` [Compound 127, 1-[(2-methoxy-4-{[(1S,4S)-2-oxa-5-azabicyclo[2.2.1]heptan-5-yl]methyl}phenyl)methyl]-N7-[(5-methyl-1,2-oxazol-3-yl)methyl]-1H-pyrazolo[4,3-d]pyrimidine-5,7-diamine], for which the EC50 in assay [1] turned out to be 682 nM; in assay [2], 16.7 nM.
